Active and inactive are the calls of the source. No cut-off for these calls is given here.
Assays:
PC-3 [1] = experiment: Induction of apoptosis in human PC-3 cells assessed as viable cells at 2.5 uM after 24 hrs by Annexin VFITC/PI staining based flow cytometric analysis (reference value: 95.8%); assay type: functional; conditions: read-out: Activity
PC-3 [2] = experiment: Induction of cell cycle arrest in human PC-3 cells assessed as accumulation at G0/G1 phase at 10 uM after 48 hrs by propidium iodide staining based flow cytometric analysis (reference value: 67.6%); assay type: functional
PC-3 [3] = experiment: Induction of ROS generation in human PC-3 cells at 10 uM incubated for 6 hrs by DSCFDA staining based spectroflurometric method; assay type: functional, cell-based
L132 = experiment: Cytotoxicity against human L132 cells assessed as reduction in cell viability after 48 hrs by MTT assay; assay type: cell-based; conditions: L132, 48 h
[4] = Inhibition of Saccharomyces cerevisiae alpha-glucosidase using p-nitophenyl alpha […]D-glucoside incubated for 45 mins
U-87 MG = experiment: Antiproliferative activity against human U87 cells assessed as reduction in cell viability after 48 hrs by MTT assay; assay type: functional, cell-based, U-87MG ATCC
PC-3 [5] = experiment: Induction of apoptosis in human PC-3 cells assessed as necrotic cells at 5 uM after 24 hrs by Annexin VFITC/PI staining based flow cytometric analysis (reference value: 4%); assay type: functional
PC-3 [6] = experiment: Induction of cell cycle arrest in human PC-3 cells assessed as accumulation at Sub-G1 phase at 5 uM after 48 hrs by propidium iodide staining based flow cytometric analysis (reference value: 3.58%); assay type: functional
PC-3 [7] = experiment: Induction of apoptosis in human PC-3 cells assessed as viable cells at 7.5 uM after 24 hrs by Annexin VFITC/PI staining based flow cytometric analysis (reference value: 95.8%); assay type: functional; conditions: read-out: Activity
PC-3 [8] = experiment: Antiproliferative activity against human PC3 cells assessed as reduction in cell viability after 48 hrs by MTT assay; assay type: functional, cell-based; conditions: PC-3, 48 h
PC-3 [9] = experiment: Induction of apoptosis in human PC-3 cells assessed as condensed chromatin at 5 to 10 uM after 48 hrs by acridine orange and ethidium bromide staining fluorescence microscopic analysis; assay type: functional, cell-based; conditions: dose 5-10 µM
PC-3 [10] = experiment: Induction of cell cycle arrest in human PC-3 cells assessed as accumulation at G2/M phase at 10 uM after 48 hrs by propidium iodide staining based flow cytometric analysis (reference value: 20.7%); assay type: functional
PC-3 [11] = experiment: Induction of apoptosis in human PC-3 cells assessed as viable cells at 5 uM after 24 hrs by Annexin VFITC/PI staining based flow cytometric analysis (reference value: 95.8%); assay type: functional; conditions: read-out: Activity
PC-3 [12] = experiment: Induction of apoptosis in human PC-3 cells assessed as late apoptotic cells at 7.5 uM after 24 hrs by Annexin VFITC/PI staining based flow cytometric analysis (reference value: 0.2%); assay type: functional
SiHa = experiment: Antiproliferative activity against human SiHa cells assessed as reduction in cell viability after 48 hrs by MTT assay; assay type: functional, cell-based
DU-145 = experiment: Antiproliferative activity against human DU-145 cells assessed as reduction in cell viability after 48 hrs by MTT assay; assay type: functional, cell-based; conditions: DU-145, 48 h
PC-3 [13] = experiment: Induction of mitochondrial membrane potential loss in human PC-3 cells at 10 uM after 24 hrs by JC-1 dye based flow cytometric analysis relative to control; assay type: functional
PC-3 [14] = experiment: Induction of apoptosis in human PC-3 cells assessed as destructive fragmentation of nuclei at 5 to 10 uM after 48 hrs by acridine orange and ethidium bromide staining fluorescence microscopic analysis; assay type: functional, cell-based; conditions: dose 5-10 µM
PC-3 [15] = experiment: Induction of apoptosis in human PC-3 cells assessed as necrotic cells at 2.5 uM after 24 hrs by Annexin VFITC/PI staining based flow cytometric analysis (reference value: 4%); assay type: functional
PC-3 [16] = experiment: Induction of apoptosis in human PC-3 cells after 24 hrs by Annexin VFITC/PI staining based flow cytometric analysis; assay type: functional, cell-based
PC-3 [17] = experiment: Induction of cell cycle arrest in human PC-3 cells assessed as accumulation at G0/G1 phase at 5 uM after 48 hrs by propidium iodide staining based flow cytometric analysis (reference value: 67.6%); assay type: functional
PC-3 [18] = experiment: Induction of apoptosis in human PC-3 cells assessed as condensed chromatin at 5 to 10 uM after 48 hrs by Hoechst 33258 staining fluorescence microscopic analysis; assay type: functional, cell-based; conditions: dose 5-10 µM
MDA-MB-231 = experiment: Antiproliferative activity against human MDA-MB-231 cells assessed as reduction in cell viability after 48 hrs by MTT assay; assay type: functional, cell-based; conditions: MDA-MB-231, 48 h
PC-3 [19] = experiment: Induction of apoptosis in human PC-3 cells assessed as early apoptotic cells at 2.5 uM after 24 hrs by Annexin VFITC/PI staining based flow cytometric analysis (reference value: 0.1%); assay type: functional
PC-3 [20] = experiment: Induction of apoptosis in human PC-3 cells assessed as early apoptotic cells at 7.5 uM after 24 hrs by Annexin VFITC/PI staining based flow cytometric analysis (reference value: 0.1%); assay type: functional
HT-29 = experiment: Antiproliferative activity against human HT-29 cells assessed as reduction in cell viability after 48 hrs by MTT assay; assay type: functional, cell-based; conditions: HT-29, 48 h
PC-3 [21] = experiment: Induction of apoptosis in human PC-3 cells assessed as fragmented nuclei at 5 to 10 uM after 48 hrs by Hoechst 33258 staining fluorescence microscopic analysis; assay type: functional, cell-based; conditions: dose 5-10 µM
PC-3 [22] = experiment: Induction of cell cycle arrest in human PC-3 cells assessed as accumulation at S phase at 10 uM after 48 hrs by propidium iodide staining based flow cytometric analysis (reference value: 7.69%); assay type: functional
PC-3 [23] = experiment: Induction of apoptosis in human PC-3 cells assessed as early apoptotic cells at 5 uM after 24 hrs by Annexin VFITC/PI staining based flow cytometric analysis (reference value: 0.1%); assay type: functional
PC-3 [24] = experiment: Induction of cell cycle arrest in human PC-3 cells assessed as accumulation at Sub-G1 phase at 10 uM after 48 hrs by propidium iodide staining based flow cytometric analysis (reference value: 3.58%); assay type: functional
PC-3 [25] = experiment: Induction of cell cycle arrest in human PC-3 cells assessed as accumulation at G2/M phase at 5 uM after 48 hrs by propidium iodide staining based flow cytometric analysis (reference value: 20.7%); assay type: functional
PC-3 [26] = experiment: Induction of apoptosis in human PC-3 cells assessed as late apoptotic cells at 5 uM after 24 hrs by Annexin VFITC/PI staining based flow cytometric analysis (reference value: 0.2%); assay type: functional
A549 = experiment: Antiproliferative activity against human A549 cells assessed as reduction in cell viability after 48 hrs by MTT assay; assay type: functional, cell-based; conditions: A549, 48 h
PC-3 [27] = experiment: Induction of apoptosis in human PC-3 cells assessed as horse shoe shaped nuclei at 5 to 10 uM after 48 hrs by Hoechst 33258 staining fluorescence microscopic analysis; assay type: functional, cell-based; conditions: dose 5-10 µM
PC-3 [28] = experiment: Induction of apoptosis in human PC-3 cells assessed as necrotic cells at 7.5 uM after 24 hrs by Annexin VFITC/PI staining based flow cytometric analysis (reference value: 4%); assay type: functional
PC-3 [29] = experiment: Induction of apoptosis in human PC-3 cells assessed as late apoptotic cells at 2.5 uM after 24 hrs by Annexin VFITC/PI staining based flow cytometric analysis (reference value: 0.2%); assay type: functional
PC-3 [30] = experiment: Induction of cell cycle arrest in human PC-3 cells assessed as accumulation at S phase at 5 uM after 48 hrs by propidium iodide staining based flow cytometric analysis (reference value: 7.69%); assay type: functional
[31] = Inhibition of LPS-induced IL-1beta expression in human U-937 cells preincubated for 1 hr followed by LPS addition and measured after 24 hrs by ELISA; assay type: functional, cell-based
[32] = Inhibition of LPS-induced TNF-alpha expression in human U-937 cells preincubated for 1 hr followed by LPS addition and measured after 24 hrs by ELISA; assay type: functional, cell-based

Row | IC50 (U-87 MG) [µM] | IC50 (PC-3 [8]) [µM] | IC50 (DU-145) [µM] | SMILES | viability at 2.5 µM (PC-3 [1]) [%] | Activity (PC-3 [2]) [%] | Activity (PC-3 [3]) | IC50 (L132) [µM] | Activity (PC-3 [5]) [%] | Activity (PC-3 [6]) [%] | viability at 7.5 µM (PC-3 [7]) [%] | Activity (PC-3 [9]) | Activity (PC-3 [10]) [%] | viability at 5 µM (PC-3 [11]) [%] | Activity (PC-3 [12]) [%] | IC50 (SiHa) [µM] | Activity (PC-3 [13]) [%] | Activity (PC-3 [14]) | Activity (PC-3 [15]) [%] | Activity (PC-3 [16]) | Activity (PC-3 [17]) [%] | other results
1 | > 150 | 6.57 | 28.4 | C/C(=C\CC/C(C)=C/CC[C@@H]1[C@@]2(C)CCC(=O)C(C)(C)[C@H]2CC[C@@]1(C)O)CC/C=C(\C)C(=O)OCc1cn(-c2cccc(O)c2)nn1 | 27.7 | 66.5 | Active | 146 | 1 | 2.09 | 31.7 | Active | 23.4 | 29.3 | 12.1 | 48 | 22 | Active | 0.8 | Dose-dependent effect | 66.5 | IC50 [4]: 14.2 µM; Activity (PC-3 [18]): Active; IC50 (MDA-MB-231): 139 µM; Activity (PC-3 [19]): 62.9%; Activity (PC-3 [20]): 54.8%; IC50 (HT-29): 38.6 µM; Activity (PC-3 [21]): Active; Activity (PC-3 [22]): 7.54%; Activity (PC-3 [23]): 58.8%; Activity (PC-3 [24]): 2.16%; Activity (PC-3 [25]): 22.7%; Activity (PC-3 [26]): 10.9%; IC50 (A549): 42.8 µM; Activity (PC-3 [27]): Active; Activity (PC-3 [28]): 1.4%; Activity (PC-3 [29]): 8.7%; Activity (PC-3 [30]): 8.26%
2 | 75.8 | 10.8 | 33.1 | C/C(=C\CC/C(C)=C/CC[C@@H]1[C@@]2(C)CCC(=O)C(C)(C)[C@H]2CC[C@@]1(C)O)CC/C=C(\C)C(=O)OCc1cn(C[C@@H]2O[C@H](n3ccc(=O)[nH]c3=O)C[C@H]2O)nn1 | 26.9 | 41 | Active | 148 | 1 | 5.96 | 27.9 | Active | 11.1 | 27.1 | 12.8 | 29.3 | 38 | Active | 0.9 | Dose-dependent effect | 68.7 | IC50 [31]: 9.25 µM; IC50 [32]: 8.88 µM; Activity (PC-3 [18]): Active; IC50 (MDA-MB-231): 26.3 µM; Activity (PC-3 [19]): 64.6%; Activity (PC-3 [20]): 58.3%; IC50 (HT-29): 34.1 µM; Activity (PC-3 [21]): Active; Activity (PC-3 [22]): 6.76%; Activity (PC-3 [23]): 59.4%; Activity (PC-3 [24]): 40.8%; Activity (PC-3 [25]): 16.6%; Activity (PC-3 [26]): 12.5%; IC50 (A549): 28.1 µM; Activity (PC-3 [27]): Active; Activity (PC-3 [28]): 1%; Activity (PC-3 [29]): 8.6%; Activity (PC-3 [30]): 8.38%
